Each structure is given as a SMILES string.

The test has as its target benzodiazepine binding site on GABAA receptors (rat cerebral cortex membranes). As to the kind of experiment: In vitro inhibition of 3H-flunitrazepam (3H-FNM) binding. The settings on record: inhibition of specific binding of 3H-FNM (1 nM), cerebral cortex membranes from male Wistar rats, 40 min at 2° C. Here is the method: In Vitro Inhibition of ^3H-flunitrazepam (^3H-FNM) Binding
The GABA recognition site and the benzodiazepine modulatory unit can selectively be labelled with ^3H-flunitrazepam.
Preparations are performed at 0-4° C. unless otherwise indicated. Cerebral cortex from male Wistar rats (150-200 g) is homogenised for 5-10 sec in 20 ml Tris-HCl (30 mM, pH 7.4) using an Ultra-Turrax homogeniser. The suspension is centrifuged at 27,000×g for 15 min and the pellet is washed three times with buffer (centrifuged at 27,000×g for 10 min). The washed pellet is homogenized in 20 ml of buffer and incubated on a water bath (37° C.) for 30 min to remove endogenous GABA and then centrifuged for 10 min at 27,000×g. The pellet is then homogenized in buffer and centrifuged for 10 min at 27,000×g. The final pellet is resuspended in 30 ml buffer and the preparation is frozen and stored at −20° C.
The membrane preparation is thawed and centrifuged at 2° C. for 10 min at 27,000×g. The pellet is washed twice with 20 ml 50 mM Tris-citrate, pH 7.1 using an Ultra-Turrax homogeniser and centrifuged for 10 min at 27,000×g. The final pellet is resuspended in 50 mM Tris-citrate, pH 7.1 (500 ml buffer per g of original tissue), and then used for binding assays. Aliquots of 0.5 ml tissue are added to 25 μl of test solution and 25 μl of ^3H-FNM (1 nM, final concentration), mixed and incubated for 40 min at 2° C. Non-specific binding is determined using Clonazepam (1 μM, final concentration). After incubation the samples are added 5 ml of ice-cold buffer and poured directly onto Whatman GF/C glass fibre filters under suction and immediately washed with 5 ml ice-cold buffer. The amount of radioactivity on the filters is determined by conventional liquid scintillation counting. Specific binding is total binding minus non-specific binding.
25-75% inhibition of specific binding must be obtained, before calculation of an IC50.
The test value will be given as IC50 (the concentration (μM) of the test substance which inhibits the specific binding of ^3H-FNM by 50%).
Co is specific binding in control assays, and
CX is the specific binding in the test assay.
(The calculations assume normal mass-action kinetics).
Regarding `CC(C)(O)c1ccc2c(c1)ncn2-c1ccc(F)c(-c2cccnc2F)c1` [Compound 7a, 2-{1-[4-Fluoro-3-(2-fluoro-pyridin-3-yl)-phenyl]-1H-benzoimidazol-5-yl}-propan-2-ol], the IC50 – broadly, the concentration that inhibits the measured activity by half – was 1.6 nM.

In turn, `CC(C)(O)c1ccc2c(c1)ncn2-c1ccc(F)c(-c2cccnc2Cl)c1` [Compound 7b, 2-{1-[3-(2-Chloro-pyridin-3-yl)-4-fluoro-phenyl]-1H-benzoimidazol-5-yl}-propan-2-ol] returned an IC50 of 1.9 nM.

For `CC(C)(O)c1ccc2c(c1)ncn2-c1ccc(F)c(-c2ccncc2Cl)c1` [Compound 7c, 2-{1-[3-(3-Chloro-pyridin-4-yl)-4-fluoro-phenyl]-1H-benzoimidazol-5-yl}-propan-2-ol], the IC50 came out at 0.64 nM.

The compound `COc1ncccc1-c1cc(-n2cnc3cc(C(C)(C)O)ccc32)ccc1F` [Compound 7d, 2-{1-[4-Fluoro-3-(2-methoxy-pyridin-3-yl)-phenyl]-1H-benzoimidazol-5-yl}-propan-2-ol] registered an IC50 of 0.29 nM.

Consider `CC(C)(O)c1ccc2c(c1)ncn2-c1ccc(F)c(-c2ccncc2F)c1` [Compound 7e, 2-{1-[4-Fluoro-3-(3-fluoro-pyridin-4-yl)-phenyl]-1H-benzoimidazol-5-yl}-propan-2-ol], for which the IC50 was determined as 1.1 nM.

`CC(C)(O)c1ccc2c(c1)ncn2-c1ccc(F)c(-c2ccnc(Cl)c2F)c1` [Compound 7f, 2-{1-[3-(2-Chloro-3-fluoro-pyridin-4-yl)-4-fluoro-phenyl]-1H-benzoimidazol-5-yl}-propan-2-ol] displayed an IC50 of 2.5 nM. Compared with the last compound, the IC50 is about 2.3-fold higher.

With `CC(C)(O)c1ccc2c(c1)ncn2-c1ccc(F)c(-c2cncc(C#N)c2)c1` [Compound 7g, 5-{2-Fluoro-5-[5-(1-hydroxy-1-methyl-ethyl)-benzoimidazol-1-yl-]-phenyl}-nicotinonitrile], the IC50 was determined as 99 nM. Compared with the last compound, the IC50 is about 40-fold higher.

`COc1ncc(-c2cc(-n3cnc4cc(C(C)(C)O)ccc43)ccc2F)c(OC)n1` [Compound 7h, 2-{1-[3-(2,4-Dimethoxy-pyrimidin-5-yl)-4-fluoro-phenyl]-1H-benzoimidazol-5-yl}-propan-2-ol]: the IC50 was 0.77 nM. This IC50 lies about 130-fold lower than the previous one.

With `CC(C)(O)c1ccc2c(c1)ncn2-c1ccc(F)c(-c2ccncc2C#N)c1` [Compound 7i, 4-{2-Fluoro-5-[5-(1-hydroxy-1-methyl-ethyl)-benzoimidazol-1-yl]-phenyl}-nicotinonitrile], the IC50 was found to be 1.1 nM.

(Values after US20110257210A1, “BENZIMIDAZOLE DERIVATIVES AND THEIR USE FOR MODULATING THE GABAA RECEPTOR COMPLEX” (NEUROSEARCH A/S, priority 2008, published 2011).)
